Experimental data from ChEMBL document CHEMBL1142612, “A meroterpenoid NF-kappaB inhibitor and drimane sesquiterpenoids from Asafetida” (J Nat Prod, 2006).
pIC50: −log10 of the molar value. The source made the active and inactive calls. No cut-off for these calls is given here.

How the values were obtained:
HeLa = test: Cytotoxicity against human HeLa cells using propidium iodide staining by flow cytometry; assay type: functional, cell-based
A549 [1] = test: Inhibition of NF-kappaB in TNF-alpha-stimulated human A549 cells cotransfected with KBF-luciferase gene preincubated for 30 mins before TNFalpha challenge after 6 hrs by luciferase reporter gene assay; assay type: cell-based
Jurkat = test: Cytotoxicity against human cloned Jurkat 5.1 cells using propidium iodide staining by flow cytometry; assay type: functional, cell-based
A549 [2] = test: Cytotoxicity against human A549 cells using propidium iodide staining by flow cytometry; assay type: functional, cell-based
[3] = Inhibition of NF-kappaB in TNF-alpha-stimulated human cloned Jurkat 5.1 cells cotransfected with HIV1-LTR promoter preincubated for 30 mins before TNFalpha challenge after 6 hrs by luciferase reporter gene assay; assay type: cell-based

pIC50 [3] | Compound | Activity (HeLa) | Activity (A549 [1]) | Activity (Jurkat) | Activity (A549 [2])
4.43 | CC(C)=CCC(O)/C(C)=C/C(O)C/C(C)=C/COc1ccc2ccc(=O)oc2c1 (configuration not stated) | – | – | – | –
4.24 | CC1=CC(=O)C2=C(C)CC3OC(=O)C(C)=C3C=C12 (configuration not stated) [TARAXACIN] | – | – | – | –

Compound | pIC50 [3] | Activity (HeLa) | Activity (A549 [1]) | Activity (Jurkat) | Activity (A549 [2])
CC(=O)OC(CC=C(C)C)/C(C)=C/C(O)C/C(C)=C/COc1ccc2ccc(=O)oc2c1 (configuration not stated) | 4.82 | inactive | Dose-dependent effect | inactive | inactive
